In patent publication US20190374533A1, “COMPOUNDS AND METHODS FOR INHIBITING NHE-MEDIATED ANTIPORT IN THE TREATMENT OF DISORDERS ASSOCIATED WITH FLUID RETENTION OR SALT OVERLOAD AND GASTROINTESTINAL TRACT DISORDERS” (Ardelyx, Inc., priority 2008, published 2019):
Structures can show the parent of a compound that is named as a salt.

Legend:
[1] = system: human duodenum monolayer culture; assay: Increased trans-epithelial resistance (TEER) in human organoid monolayer cell cultures; format: cell-based; settings: 1 μM apical, baseline corrected
Experimental: Transwells were 0.4 μm pore polyester membrane 24-well Transwell inserts (Corning). Cultures were incubated at 37° C. in 5% CO2.
Human duodenum organoids were cultured in WENRNAS (Wnt, EGF, noggin, R-spondin1. Nicotinamide, A83-01, SB202190) and typically grown for 7-12 days before being used to plate monolayer cultures. On day 0, organoid cultures embedded in Matrigel were treated with TrypLE Express to break organoids into small pieces and/or single cells. The cells were resuspended to 0.5×10^6 cells/mL in SBM containing WENRAY (Wnt. EGF, noggin, R-spondin1, A83-01, Y-27632). Following this step, 200 μL of cell suspension was plated into the apical side of a 24-well Transwell (100,000 cells/well) and 600 μL of SBM with WENRAY was added to the basolateral side. Duodenum cells were differentiated with ENA (EGF, noggin, A83-01) on day 3. […]
Each human duodenum monolayer culture well was washed twice with fresh SBM on the apical side on day 6 or day 7 before dosing. […] Transepithelial electrical resistance (TEER) was used as a quantitative technique to measure of tight junction permeability. TEER values were recorded (MERS00002. Millipore) before dosing and 30 mins and 1 hr after dosing for all wells. […] Baseline corrected TEER for each example compound was compared to the average of the DMSO wells and expressed as a percent TEER of vehicle control.

[2] = system: gastrointestinal motility; assay: Restoration of gastrointestinal motility in opioid induced constipation (loperamide); format: in vivo, mice; settings: 15 mg/kg oral gavage, loperamide s.c., Evans Blue dye front after 30 minutes
[3] = system: absorption of sodium from the intestinal lumen; assay: Inhibition of intestinal sodium absorption in rats; format: in vivo, rat; settings: Sprague Dawley rats, 0.1 mg/kg oral gavage, 13-hours post-dose
Experimental: Urinary sodium excretion and fecal form were measured to assess the ability of selected example compounds to inhibit the absorption of sodium from the intestinal lumen. Eight-week old, male, Sprague Dawley rats were purchased from Envigo (Livermore, Calif.), were housed 2 per cage and acclimated for at least 48 hours before study initiation. Animals were fed Harlan Teklad Global TD.160470 rodent chow (Maddison, Wis.), standard laboratory rodent chow Harlan Teklad Global 2018 with the addition of 0.4% inorganic phosphorous. […] At 13-hours post-dose, urine samples were collected and fecal form was assessed. In addition, the weight of food consumed over the 13-hour period was measured and recorded. Fecal forms were scored according to a common scale associated with increasing fecal water to the wettest observation in the cage's collection funnel (1, normal pellet; 2, pellet adhering to sides of collection funnel due to moisture; 3, loss of normal pellet shape: 4, complete loss of shape with a blotting pattern; 5, liquid fecal streams evident). Fecal form score (FFS) was calculated for each group as the median of each individual rat's FFS within the group and reported in Table 12. Fecal samples were dried using a lyophilizer for at least 3 days, following which dry weight was recorded and fecal fluid content was calculated based on the difference between the wet and dry stool weights. […]

Compound | TEER at 30 minutes (% of Vehicle) ([1]; 30 mins after dosing) | TEER at 60 minues (% of Vehicle) ([1]; 1 hr after dosing) | % Restoration of Transit [2] | Urinary Na (% of Vehicle, out/in) ([3]; normalized to dietary sodium intake) | FFS (1-5) ([3]; fecal form score, group median)
CN1Cc2c(Cl)cc(Cl)cc2[C@H](c2cccc(S(=O)(=O)NCCOCCOCCNC(=O)NCCCCNC(=O)NCCOCCOCCNS(=O)(=O)c3cccc([C@@H]4CN(C)Cc5c(Cl)cc(Cl)cc54)c3)c2)C1 (single isomer, unassigned) [Example 202, (S or R)—N,N′-(10,17-dioxo-3,6,21,24-tetraoxa-9,11,16,18-tetraazahexacosane-1,26-diyl)bis(3-((S)-6,8-dichloro-2-methyl-1,2,3,4-tetrahydroisoquinolin-4-yl)benzenesulfonamide) bis-hydrochloride salt] | B (100-130%) | B (100-130%) | C (>40%) | – | –
CN1Cc2c(Cl)cc(Cl)cc2[C@H](c2cccc(S(=O)(=O)NCCOCCOCCNC(=O)Nc3ccc(NC(=O)NCCOCCOCCNS(=O)(=O)c4cccc([C@@H]5CN(C)Cc6c(Cl)cc(Cl)cc65)c4)cc3)c2)C1 (single isomer, unassigned) [Example 203, (S or R)—N,N′-(2,2′-(2,2′-(2,2′-(1,4-phenylenebis(azanediyl))bis(oxomethylene)bis(azanediyl)bis(ethane-2,1-diyl))bis(oxy)bis(ethane-2,1-diyl))bis(oxy)bis(ethane-2,1-diyl))bis(3-((S or R)-6,8-dichloro-2-methyl-1,2,3,4-tetrahydroisoquinolin-4-yl)benzenesulfonamide) bis-hydrochloride salt] | – | – | – | C (<40%) | 3
